Measurements as given in ChEMBL document CHEMBL1201861, “Genomics of Drug Sensitity in Cancer screening data, Wellcome Trust Sanger Institute”.

What was measured:
Assay in all cases: cells
Type in all cases: functional, cell-based, Homo sapiens
786-0 = conditions: Homo sapiens
Description: SANGER: Inhibition of human 786-0 cell growth in a cell viability assay.

HSC-2 = conditions: Homo sapiens, HSC-2;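 further: growth inhibition of human HSC-2 cells, read out by a cell viability assay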
Description: SANGER: Inhibition of human HSC-2 cell growth in a cell viability assay.

NCI-H661 = conditions: Homo sapiens, NCI-H661;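 further: cell viability assay read-out, IC50 being the concentration that inhibits growth of the cells by half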
Description: SANGER: Inhibition of human NCI-H661 cell growth in a cell viability assay.

NCI-H2342 = conditions: Homo sapiens, NCI-H2342;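 further: growth inhibition of the cancer cell line, determined with a cell viability assay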
Description: SANGER: Inhibition of human NCI-H2342 cell growth in a cell viability assay.

HCC1419 = conditions: Homo sapiens, HCC1419;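 further: growth inhibition of human HCC1419 cells, read out as cell viability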
Description: SANGER: Inhibition of human HCC1419 cell growth in a cell viability assay.

RT-112 = conditions: Homo sapiens, RT-112
Description: SANGER: Inhibition of human RT-112 cell growth in a cell viability assay.

RPMI-2650 = conditions: Homo sapiens, RPMI-2650
Description: SANGER: Inhibition of human RPMI-2650 cell growth in a cell viability assay.

SCC-25 = conditions: Homo sapiens, SCC-25;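 further: growth inhibition of SCC-25 cells, measured with a cell viability assay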
Description: SANGER: Inhibition of human SCC-25 cell growth in a cell viability assay.

RERF-LC-MS = conditions: Homo sapiens, RERF-LC-MS;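 further: growth inhibition of human RERF-LC-MS cells, read out by a cell viability assay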
Description: SANGER: Inhibition of human RERF-LC-MS cell growth in a cell viability assay.

H4 = conditions: Homo sapiens, H4
Description: SANGER: Inhibition of human H4 cell growth in a cell viability assay.

H-EMC-SS = conditions: Homo sapiens, H-EMC-SS
Description: SANGER: Inhibition of human H-EMC-SS cell growth in a cell viability assay.

HCC1954 = conditions: Homo sapiens, HCC1954;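 further: growth inhibition of human HCC1954 cells, read out with a cell viability assay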
Description: SANGER: Inhibition of human HCC1954 cell growth in a cell viability assay.

HCC1569 = conditions: Homo sapiens, HCC1569;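 further: growth inhibition of human HCC1569 cells, read out with a cell viability assay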
Description: SANGER: Inhibition of human HCC1569 cell growth in a cell viability assay.

CAL-12T = conditions: Homo sapiens, CAL-12T;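 further: growth inhibition of human CAL-12T cells, read out with a cell viability assay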
Description: SANGER: Inhibition of human CAL-12T cell growth in a cell viability assay.

KYSE-410 = conditions: Homo sapiens, KYSE-410;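 further: growth inhibition of KYSE-410 cells, measured through a cell viability readout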
Description: SANGER: Inhibition of human KYSE-410 cell growth in a cell viability assay.

SW1783 = conditions: Homo sapiens, SW1783;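 further: cell growth inhibition measured with a viability assay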
Description: SANGER: Inhibition of human SW1783 cell growth in a cell viability assay.

MKN-28 = conditions: Homo sapiens, MKN-28;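 further: cell viability assay read-out, IC50 reflects suppression of growth of human MKN-28 cells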
Description: SANGER: Inhibition of human MKN28 cell growth in a cell viability assay.

OAW-42 = conditions: Homo sapiens, OAW-42;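 further: growth inhibition of OAW-42 cells, read out with a cell viability assay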
Description: SANGER: Inhibition of human OAW-42 cell growth in a cell viability assay.

SJRH30 = conditions: Homo sapiens, SJRH30;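 further: growth inhibition of human SJRH30 cells, read out with a cell viability assay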
Description: SANGER: Inhibition of human SJRH30 cell growth in a cell viability assay.

NCI-H28 = conditions: Homo sapiens, NCI-H28;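 further: growth inhibition of human NCI-H28 cells, read out as cell viability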
Description: SANGER: Inhibition of human NCI-H28 cell growth in a cell viability assay.

KNS-62 = conditions: Homo sapiens, KNS-62;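 further: inhibition of cell growth, read out with a cell viability assay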
Description: SANGER: Inhibition of human KNS-62 cell growth in a cell viability assay.

EW-22 = conditions: Homo sapiens, EW-22;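 further: growth inhibition of the EW-22 cell line, measured with a cell viability readout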
Description: SANGER: Inhibition of human EW-22 cell growth in a cell viability assay.

CAL-51 = conditions: Homo sapiens, CAL-51;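 further: human CAL-51 cell line, growth inhibition read out via a cell viability assay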
Description: SANGER: Inhibition of human CAL-51 cell growth in a cell viability assay.

SCC-9 = conditions: Homo sapiens, SCC-9;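 further: Read-out is a cell viability assay, with values giving inhibition of cell growth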
Description: SANGER: Inhibition of human SCC-9 cell growth in a cell viability assay.

RVH-421 = conditions: Homo sapiens, RVH-421
Description: SANGER: Inhibition of human RVH-421 cell growth in a cell viability assay.

SBC-5 = conditions: Homo sapiens, SBC-5;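 further: cell viability assay read-out, IC50 is the concentration that inhibits growth of the cells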
Description: SANGER: Inhibition of human SBC-5 cell growth in a cell viability assay.

D-566MG = conditions: Homo sapiens, D-566MG
MDA-MB-361 = conditions: Homo sapiens, MDA-MB-361
DMS-273 = conditions: Homo sapiens, DMS-273
Description: SANGER: Inhibition of human DMS-273 cell growth in a cell viability assay.

SAOS-2 = conditions: Homo sapiens, SAOS-2;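 further: growth inhibition of human Saos-2 cells determined by a cell viability assay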
Description: SANGER: Inhibition of human Saos-2 cell growth in a cell viability assay.

OVCAR-8 = conditions: Homo sapiens, OVCAR-8;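 further: growth inhibition of human OVCAR-8 cells, read out by a cell viability assay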
Description: SANGER: Inhibition of human OVCAR-8 cell growth in a cell viability assay.

GCT = conditions: Homo sapiens, GCT;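 further: GCT cell line proliferation inhibition, read out with a cell viability assay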
Description: SANGER: Inhibition of human GCT cell growth in a cell viability assay.

A549 = conditions: Homo sapiens, A549;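 further: growth inhibition of A549 cells, read out with a cell viability assay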
Description: SANGER: Inhibition of human A549 cell growth in a cell viability assay.

SW1088 = conditions: Homo sapiens, SW1088;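 further: growth inhibition of human SW1088 cells, read out by a cell viability assay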
Description: SANGER: Inhibition of human SW1088 cell growth in a cell viability assay.

COLO-741 = conditions: Homo sapiens, COLO-741
Description: SANGER: Inhibition of human COLO-741 cell growth in a cell viability assay.

ZR-75-30 = conditions: Homo sapiens, ZR-75-30;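 further: growth inhibition of ZR-75-30 cells, measured with a cell viability readout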
Description: SANGER: Inhibition of human ZR-75-30 cell growth in a cell viability assay.

RMG-I = conditions: Homo sapiens, RMG-I;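 further: growth inhibition of human RMG-I cells, read out with a cell viability assay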
Description: SANGER: Inhibition of human RMG-I cell growth in a cell viability assay.

769-P = conditions: Homo sapiens, 769-P
Description: SANGER: Inhibition of human 769-P cell growth in a cell viability assay.

KYSE-150 cell line = conditions: Homo sapiens, KYSE-150;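 further: growth inhibition of human KYSE-150 cells, read out with a cell viability assay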
Description: SANGER: Inhibition of human KYSE-150 cell growth in a cell viability assay.

CO[C@H]1C[C@@H]2CC[C@@H](C)[C@@](O)(O2)C(=O)C(=O)N2CCCC[C@H]2C(=O)O[C@H]([C@H](C)C[C@@H]2CC[C@@H](OC(=O)C(C)(CO)CO)[C@H](OC)C2)CC(=O)[C@H](C)/C=C(\C)[C@@H](O)[C@@H](OC)C(=O)[C@H](C)C[C@H](C)/C=C/C=C/C=C/1C [TEMSIROLIMUS]
IC50 (786-0): 51.7 nM | IC50 (HSC-2): 200 nM | IC50 (NCI-H661): 117 nM | IC50 (NCI-H2342): > 200 nM | IC50 (HCC1419): 25.8 nM | IC50 (RT-112): 47.1 nM | IC50 (RPMI-2650): 117 nM | IC50 (SCC-25): > 200 nM | IC50 (RERF-LC-MS): > 200 nM | IC50 (H4): 1.07 nM | IC50 (H-EMC-SS): > 200 nM | IC50 (HCC1954): > 200 nM | IC50 (HCC1569): > 200 nM | IC50 (CAL-12T): > 200 nM | IC50 (KYSE-410): 180 nM | IC50 (SW1783): > 200 nM | IC50 (MKN-28): > 200 nM | IC50 (OAW-42): > 200 nM | IC50 (SJRH30): > 200 nM | IC50 (NCI-H28): > 200 nM | IC50 (KNS-62): 50.4 nM | IC50 (EW-22): > 200 nM | IC50 (CAL-51): > 200 nM | IC50 (SCC-9): > 200 nM | IC50 (RVH-421): 187 nM | IC50 (SBC-5): 103 nM | IC50 (D-566MG): 7.16 nM | IC50 (MDA-MB-361): > 200 nM | IC50 (DMS-273): > 200 nM | IC50 (SAOS-2): > 200 nM | IC50 (OVCAR-8): 136 nM | IC50 (GCT): > 200 nM | IC50 (A549): 20.2 nM | IC50 (SW1088): 31.8 nM | IC50 (COLO-741): > 200 nM | IC50 (ZR-75-30): > 200 nM | IC50 (RMG-I): > 200 nM | IC50 (769-P): > 200 nM | IC50 (KYSE-150 cell line): > 200 nM

CCN(CC)CCCCNc1ncc2cc(-c3cc(OC)cc(OC)c3)c(NC(=O)NC(C)(C)C)nc2n1 [PD-173074]
IC50 (786-0): > 2000 nM | IC50 (HSC-2): > 2000 nM | IC50 (NCI-H661): > 2000 nM | IC50 (NCI-H2342): > 2000 nM | IC50 (HCC1419): > 2000 nM | IC50 (RT-112): 547 nM | IC50 (RPMI-2650): > 2000 nM | IC50 (SCC-25): > 2000 nM | IC50 (RERF-LC-MS): > 2000 nM | IC50 (H4): > 2000 nM | IC50 (H-EMC-SS): 347 nM | IC50 (HCC1954): > 2000 nM | IC50 (HCC1569): > 2000 nM | IC50 (CAL-12T): > 2000 nM | IC50 (KYSE-410): > 2000 nM | IC50 (SW1783): > 2000 nM | IC50 (MKN-28): > 2000 nM | IC50 (OAW-42): > 2000 nM | IC50 (SJRH30): > 2000 nM | IC50 (NCI-H28): > 2000 nM | IC50 (KNS-62): > 2000 nM | IC50 (EW-22): > 2000 nM | IC50 (CAL-51): > 2000 nM | IC50 (SCC-9): > 2000 nM | IC50 (RVH-421): > 2000 nM | IC50 (SBC-5): > 2000 nM | IC50 (D-566MG): > 2000 nM | IC50 (MDA-MB-361): > 2000 nM | IC50 (DMS-273): > 2000 nM | IC50 (SAOS-2): > 2000 nM | IC50 (OVCAR-8): > 2000 nM | IC50 (GCT): > 2000 nM | IC50 (A549): > 2000 nM | IC50 (SW1088): > 2000 nM | IC50 (COLO-741): > 2000 nM | IC50 (ZR-75-30): > 2000 nM | IC50 (RMG-I): > 2000 nM | IC50 (769-P): > 2000 nM | IC50 (KYSE-150 cell line): > 2000 nM

COc1cc2c(Nc3ccc(NC(=O)c4ccccc4)cc3)ncnc2cc1OCCCN1CCOCC1
IC50 (786-0): > 4000 nM | IC50 (HSC-2): > 4000 nM | IC50 (NCI-H661): 2990 nM | IC50 (NCI-H2342): > 4000 nM | IC50 (HCC1419): > 4000 nM | IC50 (RT-112): 2660 nM | IC50 (RPMI-2650): > 4000 nM | IC50 (SCC-25): > 4000 nM | IC50 (RERF-LC-MS): > 4000 nM | IC50 (H4): 1820 nM | IC50 (H-EMC-SS): > 4000 nM | IC50 (HCC1954): > 4000 nM | IC50 (HCC1569): > 4000 nM | IC50 (CAL-12T): > 4000 nM | IC50 (KYSE-410): > 4000 nM | IC50 (SW1783): > 4000 nM | IC50 (MKN-28): > 4000 nM | IC50 (OAW-42): > 4000 nM | IC50 (SJRH30): > 4000 nM | IC50 (NCI-H28): > 4000 nM | IC50 (KNS-62): > 4000 nM | IC50 (EW-22): 3180 nM | IC50 (CAL-51): 1840 nM | IC50 (SCC-9): > 4000 nM | IC50 (RVH-421): > 4000 nM | IC50 (SBC-5): > 4000 nM | IC50 (D-566MG): 1790 nM | IC50 (MDA-MB-361): > 4000 nM | IC50 (DMS-273): > 4000 nM | IC50 (SAOS-2): > 4000 nM | IC50 (OVCAR-8): > 4000 nM | IC50 (GCT): 3770 nM | IC50 (A549): 2640 nM | IC50 (SW1088): > 4000 nM | IC50 (COLO-741): > 4000 nM | IC50 (ZR-75-30): > 4000 nM | IC50 (RMG-I): > 4000 nM | IC50 (769-P): > 4000 nM | IC50 (KYSE-150 cell line): > 4000 nM

Cn1cnc2c(F)c(Nc3ccc(Br)cc3Cl)c(C(=O)NOCCO)cc21 [SELUMETINIB]
IC50 (786-0): > 4000 nM | IC50 (HSC-2): > 4000 nM | IC50 (NCI-H661): > 4000 nM | IC50 (NCI-H2342): > 4000 nM | IC50 (HCC1419): > 4000 nM | IC50 (RT-112): 2260 nM | IC50 (RPMI-2650): > 4000 nM | IC50 (SCC-25): > 4000 nM | IC50 (RERF-LC-MS): > 4000 nM | IC50 (H4): > 4000 nM | IC50 (H-EMC-SS): 291 nM | IC50 (HCC1954): > 4000 nM | IC50 (HCC1569): > 4000 nM | IC50 (CAL-12T): > 4000 nM | IC50 (KYSE-410): > 4000 nM | IC50 (SW1783): > 4000 nM | IC50 (OAW-42): > 4000 nM | IC50 (SJRH30): > 4000 nM | IC50 (NCI-H28): > 4000 nM | IC50 (KNS-62): > 4000 nM | IC50 (EW-22): > 4000 nM | IC50 (CAL-51): > 4000 nM | IC50 (SCC-9): > 4000 nM | IC50 (RVH-421): 279 nM | IC50 (SBC-5): > 4000 nM | IC50 (D-566MG): > 4000 nM | IC50 (MDA-MB-361): > 4000 nM | IC50 (DMS-273): > 4000 nM | IC50 (SAOS-2): > 4000 nM | IC50 (OVCAR-8): > 4000 nM | IC50 (GCT): > 4000 nM | IC50 (A549): 214 nM | IC50 (SW1088): > 4000 nM | IC50 (COLO-741): 531 nM | IC50 (ZR-75-30): > 4000 nM | IC50 (RMG-I): > 4000 nM | IC50 (769-P): 3740 nM | IC50 (KYSE-150 cell line): > 4000 nM
